Measured values from patent publication US20230265098A1, “ALKYNE QUINAZOLINE DERIVATIVES AS INHIBITORS OF ERBB2” (EnLiven Therapeutics, Inc., priority 2020, published 2023).

What was measured:
[1] = target: T1, Ba/F3 EGFR wt (Homo sapiens, UniProt P00533); assay: Cell viability assay (CellTiter Glo); assay type: cell-based, mouse; conditions: 72 hours; 3000 cells per well, 96-well plates; read-out: Cell viability IC50, nM, Ba/F3 EGFR wt
T1 construct: Ba/F3 cell lines were engineered to express human ERBB2 or EGFR kinases, rendering the cells IL-3 independent
In short: (§1)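 Murine Ba/F3 cells made IL-3-independent by retroviral human EGFR or ERBB2 were seeded at 3000 or 300 cells per well and exposed to serially diluted compound (DMSO ≤0.1%) for 72 hours at 37° C, 5% CO2. CellTiter Glo luminescence was normalised to DMSO and media-only controls and fitted to a sigmoidal dose-response.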

[2] = target: T2, Ba/F3 ERBB2-L869R (Homo sapiens, UniProt P04626, L869R, cells depend on it); assay: Cell viability assay (CellTiter Glo); assay type: cell-based, mouse; conditions: 72 hours; 3000 cells per well, 96-well plates; read-out: Cell viability IC50, nM, Ba/F3 ERBB2-L869R
T2 construct: Ba/F3 cell lines were engineered to express human ERBB2 or EGFR kinases, rendering the cells IL-3 independent
T2 sequence (P04626 whole entry L869R): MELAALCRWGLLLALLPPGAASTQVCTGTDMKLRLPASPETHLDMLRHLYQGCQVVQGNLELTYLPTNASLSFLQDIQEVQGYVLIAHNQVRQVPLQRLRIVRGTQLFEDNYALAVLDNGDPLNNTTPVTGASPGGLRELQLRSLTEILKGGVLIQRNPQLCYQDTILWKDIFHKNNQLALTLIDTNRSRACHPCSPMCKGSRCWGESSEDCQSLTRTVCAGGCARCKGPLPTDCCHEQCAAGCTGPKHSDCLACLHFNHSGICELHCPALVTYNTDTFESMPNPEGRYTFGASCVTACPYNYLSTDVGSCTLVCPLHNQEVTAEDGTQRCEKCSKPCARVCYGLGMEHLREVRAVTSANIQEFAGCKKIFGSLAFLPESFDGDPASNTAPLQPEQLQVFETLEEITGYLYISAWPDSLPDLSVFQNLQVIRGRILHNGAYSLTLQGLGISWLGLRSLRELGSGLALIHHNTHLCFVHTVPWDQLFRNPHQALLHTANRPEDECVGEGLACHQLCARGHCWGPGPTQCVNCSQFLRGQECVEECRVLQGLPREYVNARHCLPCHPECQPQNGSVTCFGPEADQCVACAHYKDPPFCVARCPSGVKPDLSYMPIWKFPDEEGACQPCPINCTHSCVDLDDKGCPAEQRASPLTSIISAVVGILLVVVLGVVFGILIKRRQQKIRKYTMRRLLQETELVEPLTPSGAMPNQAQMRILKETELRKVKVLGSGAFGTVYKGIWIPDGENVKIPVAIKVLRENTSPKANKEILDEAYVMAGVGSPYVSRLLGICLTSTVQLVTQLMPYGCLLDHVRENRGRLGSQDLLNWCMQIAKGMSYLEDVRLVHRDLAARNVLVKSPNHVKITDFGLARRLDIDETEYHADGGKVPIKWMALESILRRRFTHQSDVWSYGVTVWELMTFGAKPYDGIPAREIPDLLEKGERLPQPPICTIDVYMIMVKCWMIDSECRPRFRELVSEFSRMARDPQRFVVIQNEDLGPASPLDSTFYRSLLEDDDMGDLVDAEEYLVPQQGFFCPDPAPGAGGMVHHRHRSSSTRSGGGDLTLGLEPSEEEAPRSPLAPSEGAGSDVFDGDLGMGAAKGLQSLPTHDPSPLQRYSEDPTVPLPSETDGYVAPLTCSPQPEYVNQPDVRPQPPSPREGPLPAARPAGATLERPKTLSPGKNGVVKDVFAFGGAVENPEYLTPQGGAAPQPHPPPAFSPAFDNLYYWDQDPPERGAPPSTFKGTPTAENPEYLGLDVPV
In short: as §1

[3] = target: ERBB2/HER2 (Homo sapiens, UniProt P04626); assay: Reaction Biology kinase activity assay (33P-ATP, HotSpot); assay type: biochemical; conditions: final enzyme concentration 50 nM; 100 μM 33P-ATP; 20 min preincubation, 2 hours at 25° C.
Method: (§2) Inhibition of kinase activity was assessed using a kinase activity assay (Anastassiadis, T. et al. Nat Biotechnol 2011 29: 1039-1045). In particular, substrate (poly Glu-Tyr sodium salt (Sigma Aldrich, cat #P7244)) was freshly prepared in reaction buffer (20 mM Hepes (pH 7.5), 10 mM MgCl2, 1 mM EGTA, 0.02% Brij35, 0.02 mg/ml BSA, 0.1 mM Na3VO4, 2 mM DTT, 1% DMSO). EGFR, ERBB2 or ERBB2 mutant kinases were added to the substrate solution and mixed at the final concentrations in Table B1, below. Compounds were dissolved in 100% DMSO and the resulting solutions were added to the kinase reaction mixture. The kinase reaction mixture was incubated with the compounds for 20 minutes at room temperature. 100 μM ^33P-ATP (Specific activity 10 μCi/μl) was then added to initiate the reaction. This mixture was incubated for 2 hours at 25° C.
(§3) Reactions were spotted onto P81 ion exchange filter paper (Whatman). Unbound phosphate was removed by extensive washing of filters in 0.75% phosphoric acid. Radioactivity was detected using a HotSpot, a proprietary technology of Reaction Biology Corporation (Anastassiadis, T. et al., Nat Biotechnol. 2011 29(11):1039-45). Kinase activity data were expressed as the percentage kinase activity remaining in test samples relative to vehicle only (i.e., DMSO only) control reactions. IC50 values and curve fits were obtained using Prism (GraphPad Software), using a nonlinear regression model with a sigmoidal dose response and are shown in Table B1.

[4] = target: ERBB2 (D769Y) (Homo sapiens, UniProt P04626, D769Y); assay: as above; assay type: biochemical; conditions: final enzyme concentration 15 nM; 100 μM 33P-ATP; 20 min preincubation, 2 hours at 25° C.
Method: as §2, §3

[5] = target: ERBB2 (P1170A) (Homo sapiens, UniProt P04626, P1170A); assay: as above; assay type: biochemical; conditions: final enzyme concentration 20 nM; 100 μM 33P-ATP; 20 min preincubation, 2 hours at 25° C.
Chain of ERBB2 (P1170A) (P04626 23-1255 P1170A): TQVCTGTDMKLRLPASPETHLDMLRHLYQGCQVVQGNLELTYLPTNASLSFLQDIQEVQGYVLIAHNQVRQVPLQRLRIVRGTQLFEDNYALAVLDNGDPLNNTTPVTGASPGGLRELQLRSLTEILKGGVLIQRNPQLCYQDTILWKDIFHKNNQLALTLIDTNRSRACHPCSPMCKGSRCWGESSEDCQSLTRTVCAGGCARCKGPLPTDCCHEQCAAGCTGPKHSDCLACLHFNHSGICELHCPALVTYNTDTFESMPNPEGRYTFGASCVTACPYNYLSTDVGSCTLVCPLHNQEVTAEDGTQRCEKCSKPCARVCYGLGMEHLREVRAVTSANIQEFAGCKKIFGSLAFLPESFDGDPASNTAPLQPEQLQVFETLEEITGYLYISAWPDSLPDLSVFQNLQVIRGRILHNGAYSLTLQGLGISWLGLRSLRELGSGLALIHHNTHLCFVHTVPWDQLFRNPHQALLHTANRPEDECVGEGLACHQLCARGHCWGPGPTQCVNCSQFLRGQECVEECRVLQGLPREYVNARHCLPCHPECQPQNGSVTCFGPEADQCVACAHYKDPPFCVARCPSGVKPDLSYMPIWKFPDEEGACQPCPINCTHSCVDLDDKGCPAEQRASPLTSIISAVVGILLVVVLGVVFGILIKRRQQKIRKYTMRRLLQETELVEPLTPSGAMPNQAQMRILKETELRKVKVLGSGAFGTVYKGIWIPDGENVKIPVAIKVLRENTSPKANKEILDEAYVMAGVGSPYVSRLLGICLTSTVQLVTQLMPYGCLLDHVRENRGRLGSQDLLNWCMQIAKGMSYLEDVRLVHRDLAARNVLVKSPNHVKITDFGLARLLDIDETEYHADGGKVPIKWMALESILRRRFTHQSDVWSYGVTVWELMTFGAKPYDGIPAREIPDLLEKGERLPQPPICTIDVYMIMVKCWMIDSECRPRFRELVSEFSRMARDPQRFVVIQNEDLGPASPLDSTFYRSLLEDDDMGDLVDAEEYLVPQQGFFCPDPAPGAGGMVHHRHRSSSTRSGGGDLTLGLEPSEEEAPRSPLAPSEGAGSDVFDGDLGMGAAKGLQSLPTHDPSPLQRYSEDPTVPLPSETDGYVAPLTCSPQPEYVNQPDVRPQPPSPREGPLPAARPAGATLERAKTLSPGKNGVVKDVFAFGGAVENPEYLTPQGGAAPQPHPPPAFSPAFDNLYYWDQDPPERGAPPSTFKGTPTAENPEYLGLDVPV
Method: as §2, §3

[6] = target: ERBB2 (R896C) (Homo sapiens, UniProt P04626, R896C); assay: as above; assay type: biochemical; conditions: final enzyme concentration 200 nM; 100 μM 33P-ATP; 20 min preincubation, 2 hours at 25° C.
Method: as §2, §3

[7] = target: ERBB2 (D769H) (Homo sapiens, UniProt P04626, D769H); assay: as above; assay type: biochemical; conditions: final enzyme concentration 150 nM; 100 μM 33P-ATP; 20 min preincubation, 2 hours at 25° C.
Chain of ERBB2 (D769H) (P04626 23-1255 D769H): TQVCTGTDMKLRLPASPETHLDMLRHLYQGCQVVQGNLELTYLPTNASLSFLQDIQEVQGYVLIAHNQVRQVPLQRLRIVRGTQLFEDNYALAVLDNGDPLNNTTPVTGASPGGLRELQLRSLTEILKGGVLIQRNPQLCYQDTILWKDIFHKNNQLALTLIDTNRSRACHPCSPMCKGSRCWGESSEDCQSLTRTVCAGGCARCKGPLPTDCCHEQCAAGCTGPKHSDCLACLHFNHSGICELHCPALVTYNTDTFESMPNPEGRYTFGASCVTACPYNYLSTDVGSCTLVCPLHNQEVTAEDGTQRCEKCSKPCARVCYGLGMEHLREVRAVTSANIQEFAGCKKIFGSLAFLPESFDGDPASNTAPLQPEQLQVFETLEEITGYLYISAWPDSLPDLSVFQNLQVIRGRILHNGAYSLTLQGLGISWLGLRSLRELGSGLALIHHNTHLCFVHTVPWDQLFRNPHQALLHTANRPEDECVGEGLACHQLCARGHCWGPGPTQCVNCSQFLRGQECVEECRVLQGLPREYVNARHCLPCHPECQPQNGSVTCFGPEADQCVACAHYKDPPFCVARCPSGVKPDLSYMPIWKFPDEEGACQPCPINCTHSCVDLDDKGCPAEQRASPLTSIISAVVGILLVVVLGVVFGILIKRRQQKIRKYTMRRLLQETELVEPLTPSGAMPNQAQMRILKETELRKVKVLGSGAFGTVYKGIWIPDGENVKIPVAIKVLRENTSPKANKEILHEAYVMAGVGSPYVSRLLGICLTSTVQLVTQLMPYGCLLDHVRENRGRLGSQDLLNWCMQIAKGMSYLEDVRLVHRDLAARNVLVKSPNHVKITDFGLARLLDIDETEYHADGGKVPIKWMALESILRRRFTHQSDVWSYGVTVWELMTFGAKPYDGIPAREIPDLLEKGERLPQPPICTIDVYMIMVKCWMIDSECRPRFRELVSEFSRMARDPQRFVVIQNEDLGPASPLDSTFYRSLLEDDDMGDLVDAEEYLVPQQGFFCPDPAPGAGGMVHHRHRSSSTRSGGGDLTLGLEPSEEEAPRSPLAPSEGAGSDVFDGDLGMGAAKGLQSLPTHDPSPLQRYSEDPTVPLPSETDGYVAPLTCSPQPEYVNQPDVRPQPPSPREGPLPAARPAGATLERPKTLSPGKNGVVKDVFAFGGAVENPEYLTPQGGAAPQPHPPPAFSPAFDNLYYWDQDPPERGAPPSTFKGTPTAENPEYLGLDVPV
Method: as §2, §3

[8] = target: EGFR (Homo sapiens, UniProt P00533); assay: as above; assay type: biochemical; conditions: final enzyme concentration 3 nM; 100 μM 33P-ATP; 20 min preincubation, 2 hours at 25° C.
Method: as §2, §3

[9] = target: ERBB2 (V777_G778insCG) (Homo sapiens, UniProt P04626, INS777CG); assay: as above; assay type: biochemical; conditions: final enzyme concentration 100 nM; 100 μM 33P-ATP; 20 min preincubation, 2 hours at 25° C.
Chain of ERBB2 (V777_G778insCG) (P04626 with tags, fused parts or gaps INS777CG limits assumed): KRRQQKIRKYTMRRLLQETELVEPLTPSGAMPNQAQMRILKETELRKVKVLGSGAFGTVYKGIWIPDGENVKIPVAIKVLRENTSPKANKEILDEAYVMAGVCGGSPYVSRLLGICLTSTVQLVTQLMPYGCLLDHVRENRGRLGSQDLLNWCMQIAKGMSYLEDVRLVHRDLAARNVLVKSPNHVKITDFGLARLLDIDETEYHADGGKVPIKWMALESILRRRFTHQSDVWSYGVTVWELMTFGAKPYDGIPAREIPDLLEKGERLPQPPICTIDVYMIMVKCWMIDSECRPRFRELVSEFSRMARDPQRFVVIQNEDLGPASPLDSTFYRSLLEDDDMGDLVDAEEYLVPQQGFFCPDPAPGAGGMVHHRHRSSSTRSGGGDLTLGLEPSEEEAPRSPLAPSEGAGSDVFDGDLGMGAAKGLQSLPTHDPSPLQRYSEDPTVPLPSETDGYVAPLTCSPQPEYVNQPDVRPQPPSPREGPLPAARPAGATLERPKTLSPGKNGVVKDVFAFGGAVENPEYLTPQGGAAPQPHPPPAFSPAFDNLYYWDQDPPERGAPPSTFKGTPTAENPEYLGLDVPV
Method: as §2, §3

[10] = target: ERBB2 (V777L) (Homo sapiens, UniProt P04626, V777L); assay: as above; assay type: biochemical; conditions: final enzyme concentration 40 nM; 100 μM 33P-ATP; 20 min preincubation, 2 hours at 25° C.
Method: as §2, §3

[11] = test system: MDA-MB-175VII cells; assay: Cell viability assay (CellTiter Glo); assay type: cell-based; conditions: Homo sapiens, 72 hours, 2000 cells per well, 384-well, RPMI + 10% FBS
Method: (§4) Cells were treated with compounds, and cell viability was measured as a metric of kinase inhibition.
(§5) The Ba/F3 cell line is IL-3-dependent mouse cell line derived from the C3H mouse strain. Ba/F3 cell lines were engineered to express human ERBB2 or EGFR kinases, rendering the cells IL-3 independent. The lines were generated via retroviral transduction utilizing a Moloney murine leukemia virus (MMLV) promoter, and constructs are stably integrated into the cell genome.
(§6) Similarly, Ba/F3 cell lines engineered to express EGFR, ERBB2, or ERBB2 mutants were grown, harvested, counted and seeded at 3000 cells per well in 96-well plates for the data sets shown in Tables B3-B4, and seeded at 300 cells per well in 384-well plates for the data set shown in Table B5. A subset of wells contained media only (low control, “LC”).
(§7) Table B2 provides the growth media and number of cells seeded per well for the each cell line.
(§8) Compounds were dissolved in DMSO and serially diluted. Serially-diluted compound or a DMSO only control (high control, “HC”) was added to the plated cells in each well. […] The final proportion of DMSO never exceeded 0.1%.
(§9) Plates were placed in a 37° C., 5% CO2 incubator for 72 hours. Plates were then removed from the incubator and equilibrated for 15 minutes at room temperature. 40 IA of CellTiter Glo reagent (Promega) was added to measure the relative level of metabolically active cells by quantifying intracellular ATP concentrations. Plates were incubated for 30 minutes at room temperature, and luminescence was measured. Percent viability was normalized to a vehicle control only using the following formula: % viability=100×(LumSample−LumLC) (LumHC−LumLC). Graphical curves were fitted using a nonlinear regression model with a sigmoidal dose response.

[12] = test system: A431 cells; assay: Cell viability assay (CellTiter Glo); assay type: cell-based; conditions: Homo sapiens, A-431; 72 hours; 1500 cells per well, 384-well; DMEM + 10% FBS
Method: as §4, §5, §6, §7, §8, §9

[13] = test system: BT-474 cells; assay: Cell viability assay (CellTiter Glo); assay type: cell-based; conditions: Homo sapiens, 72 hours, 2000 cells per well, 384-well, DMEM + 10% FBS
Method: as §4, §5, §6, §7, §8, §9

| Compound | GI50 [1] [nM] | GI50 [2] [nM] | IC50 [3] [nM] | IC50 [4] [nM] | IC50 [5] [nM] | IC50 [6] [nM] | IC50 [7] [nM] | IC50 [8] [nM] | IC50 [9] [nM] | IC50 [10] [nM] | IC50 [11] [nM] | IC50 [12] [nM] | IC50 [13] [nM] |
| --- | --- | --- | --- | --- | --- | --- | --- | --- | --- | --- | --- | --- | --- |
| CC#CC(=O)Nc1ccc2ncnc(Nc3ccc(Oc4ccn5ncnc5c4)c(C)c3)c2c1 [Compound 1, N-[4-[(3-methyl-4-[[1,2,4]triazolo[1,5-a]pyridin-7-yloxy]phenyl)amino]quinazolin-6-yl]but-2-ynamide] | 2750 | < 1 | 0.49 | 1.56 | 0.68 | 2.29 | 1.04 | 58 | 0.97 | 1.38 | 9 | 1730 | 3.89 |
| Cc1cc(Nc2ncnc3ccc(NC4=NC(C)(C)CO4)cc23)ccc1Oc1ccn2ncnc2c1 [Tucatinib, tucatinib, reference compound] | > 10000 | 63.5 | 3.07 | 13.7 | 3.99 | 2.95 | 5 | 954 | 4.43 | 4.3 | 89 | > 10000 | 41.8 |
| CC#CC(=O)Nc1cc2c(Nc3ccc(Oc4ccn5ncnc5c4)c(C)c3)ncnc2cc1OCCN(C)C [Compound 150, N-[7-[2-(dimethylamino)ethoxy]-4-[(3-methyl-4-[[1,2,4]triazolo[1,5-a]pyridin-7-yloxy]phenyl)amino]quinazolin-6-yl]but-2-ynamide] |  | 4.31 |  |  |  |  |  |  |  |  |  |  |  |
